According to patent US7220775B2, “Compound useful for the treatment of neuropathic pain” (H. Lundbeck A/S, priority 2002, dated 2007):

What was measured:
[1] = target: T1, human dopamine D1 receptor (Homo sapiens, UniProt P21728); test: Dopamine D1 receptor binding; conditions: Table 10
T1 construct: purchased BioSignal, Inc. (Montreal, Canada)
From the text: (§1) Other receptors: Cell membranes expressing human dopamine D1, D2, D4 and rat D3 receptors were purchased through BioSignal, Inc. (Montreal, Canada). Binding assays using the histamine H, receptor; dopamine receptors; and α1A, α1B, and α2 adrenergic receptors may be carried out according to the procedures described in U.S. Pat. No. 5,780,485, the disclosure of which is hereby incorporated by reference in its entirety into this application. Binding assays using the dopamine D5 receptor may be carried out according to the procedures described in U.S. Pat. No. 5,882,855, the disclosure of which is hereby incorporated by reference in its entirety into this application. Binding assays for the human α1D adrenergic receptor may be carried out according to the procedures described in U.S. Pat. No. 6,156,518, the disclosure of which is hereby incorporated by reference in its entirety into this application.

[2] = target: T2, human α1D adrenergic receptor (Homo sapiens, UniProt P25100); test: α1D adrenergic receptor binding; conditions: Table 10
T2 construct: expressed in transfected cells
T2 sequence (P25100 whole entry): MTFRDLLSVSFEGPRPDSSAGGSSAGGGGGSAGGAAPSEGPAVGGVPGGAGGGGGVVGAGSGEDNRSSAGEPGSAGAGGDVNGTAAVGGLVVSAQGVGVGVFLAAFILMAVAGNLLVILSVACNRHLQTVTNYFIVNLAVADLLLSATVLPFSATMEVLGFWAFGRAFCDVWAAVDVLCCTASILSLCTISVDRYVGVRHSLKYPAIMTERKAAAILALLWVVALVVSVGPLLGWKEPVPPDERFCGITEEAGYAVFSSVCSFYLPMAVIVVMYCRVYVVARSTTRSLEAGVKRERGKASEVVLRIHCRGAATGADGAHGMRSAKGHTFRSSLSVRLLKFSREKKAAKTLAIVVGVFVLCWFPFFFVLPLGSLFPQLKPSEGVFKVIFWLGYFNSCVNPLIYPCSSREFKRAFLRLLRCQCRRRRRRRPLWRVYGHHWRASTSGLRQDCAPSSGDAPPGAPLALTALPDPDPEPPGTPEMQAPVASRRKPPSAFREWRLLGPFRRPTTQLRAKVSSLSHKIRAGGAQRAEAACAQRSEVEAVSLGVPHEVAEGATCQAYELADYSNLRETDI
From the text: as §1

Human 5HT1D receptor = target: T3, Human 5HT1D receptor (Homo sapiens, UniProt P28221); test: 5HT1D receptor binding ([3H]-serotonin); conditions: Table 8
T3 construct: expressed in transfected cells
T3 sequence (P28221 whole entry): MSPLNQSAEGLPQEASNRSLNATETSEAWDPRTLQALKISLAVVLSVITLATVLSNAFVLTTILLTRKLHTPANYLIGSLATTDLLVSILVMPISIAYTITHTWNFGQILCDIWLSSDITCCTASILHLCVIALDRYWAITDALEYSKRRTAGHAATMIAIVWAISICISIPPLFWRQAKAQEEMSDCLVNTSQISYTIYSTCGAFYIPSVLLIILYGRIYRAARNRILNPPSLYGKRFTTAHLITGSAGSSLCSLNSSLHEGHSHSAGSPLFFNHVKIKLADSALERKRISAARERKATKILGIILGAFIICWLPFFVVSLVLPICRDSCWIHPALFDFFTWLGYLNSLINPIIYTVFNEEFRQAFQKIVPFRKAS
Description: Human 5HT1B, 5HT1D, 5HT1E, 5HT1F, and 5HT7 Receptors: The cell lysates of LM(tk−) clonal cell line stably transfected with the genes encoding each of these 5HT receptor-subtypes were prepared as described above. Cell membranes were suspended in 50 mM Tris-HCl buffer (pH 7.4 at 37° C.) containing 10 mM MgCl2, 0.2 mM EDTA, 10 µM pargyline, and 0.1% ascorbate. […] Nonspecific binding was determined in the presence of 10 μM serotonin. The bound radioligand was separated by filtration through GF/B filters using a cell harvester.

Human 5HT2A receptor = target: T4, Human 5HT2A receptor (Homo sapiens, UniProt P28223); test: 5HT2A receptor binding ([3H]ketanserin); conditions: Table 8
T4 construct: expressed in transfected cells; host or cells: COS-7 cells, transient, vector pCEXV-3
T4 sequence (P28223 whole entry): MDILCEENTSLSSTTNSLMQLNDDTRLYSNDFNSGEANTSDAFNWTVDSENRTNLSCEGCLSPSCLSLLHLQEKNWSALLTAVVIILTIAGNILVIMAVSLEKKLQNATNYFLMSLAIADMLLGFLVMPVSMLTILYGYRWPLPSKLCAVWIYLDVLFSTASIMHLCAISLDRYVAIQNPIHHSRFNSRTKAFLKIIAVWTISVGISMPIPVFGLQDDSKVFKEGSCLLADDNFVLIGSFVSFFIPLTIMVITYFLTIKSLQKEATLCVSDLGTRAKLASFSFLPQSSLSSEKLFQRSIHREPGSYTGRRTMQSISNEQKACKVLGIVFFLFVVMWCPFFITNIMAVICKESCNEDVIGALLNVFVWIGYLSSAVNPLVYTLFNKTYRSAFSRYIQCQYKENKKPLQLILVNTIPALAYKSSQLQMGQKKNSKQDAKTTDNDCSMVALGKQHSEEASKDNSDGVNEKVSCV
Description: Human 5HT2A Receptor: The coding sequence of the human 5HT2A receptor was obtained from a human brain cortex cDNA library, and cloned into the cloning site of pCEXV-3 eukaryotic expression vector. This construct was transfected into COS-7 cells by the DEAE-dextran method (Cullen, 1987). Cells were harvested after 72 hours and lysed by sonication in 5 mM Tris-HCl, 5 mM EDTA, pH 7.5. The cell lysates were subjected to centrifugation at 1000 rpm for 5 minutes at 4° C., and the supernatant was subjected to centrifugation at 30,000×g for. 20 minutes at 4° C. The pellet was suspended in 50 mM Tris-HCl buffer (pH 7.7 at room temperature) containing 10 mM MgSO4, 0.5 mM EDTA, and 0.1% ascorbate. The affinity of compounds at 5HT2A receptors were determined in equilibrium competition binding assays using [^3H]ketanserin (1 nM). Nonspecific binding was defined by the addition of 10 μM mianserin. The bound radioligand was separated by filtration through GF/B filters using a cell harvester.

[3] = target: human dopamine D5 receptor (Homo sapiens, UniProt P21918); test: Dopamine D5 receptor binding; conditions: Table 10
Chain of human dopamine D5 receptor (P21918 whole entry): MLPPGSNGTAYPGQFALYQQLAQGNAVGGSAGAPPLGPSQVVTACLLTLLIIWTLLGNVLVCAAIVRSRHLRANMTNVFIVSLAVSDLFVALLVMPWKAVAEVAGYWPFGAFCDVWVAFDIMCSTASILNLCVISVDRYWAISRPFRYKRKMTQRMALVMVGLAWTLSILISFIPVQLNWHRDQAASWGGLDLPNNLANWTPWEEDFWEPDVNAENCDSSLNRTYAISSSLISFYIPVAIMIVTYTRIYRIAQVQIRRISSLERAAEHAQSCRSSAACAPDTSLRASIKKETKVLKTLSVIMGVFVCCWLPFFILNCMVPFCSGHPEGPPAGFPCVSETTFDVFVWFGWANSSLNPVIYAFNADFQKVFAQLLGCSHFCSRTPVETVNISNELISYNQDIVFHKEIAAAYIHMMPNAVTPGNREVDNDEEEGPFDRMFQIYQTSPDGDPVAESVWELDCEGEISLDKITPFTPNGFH
From the text: as §1

h5HT1A = target: T5, h5HT1A (Homo sapiens, UniProt P08908); test: 5-HT1A receptor binding (3H-8-OH-DPAT); conditions: Table 8
T5 construct: expressed in transfected cells; host or cells: COS-7 cells, transient, vector pCEXV-3
T5 sequence (P08908 whole entry): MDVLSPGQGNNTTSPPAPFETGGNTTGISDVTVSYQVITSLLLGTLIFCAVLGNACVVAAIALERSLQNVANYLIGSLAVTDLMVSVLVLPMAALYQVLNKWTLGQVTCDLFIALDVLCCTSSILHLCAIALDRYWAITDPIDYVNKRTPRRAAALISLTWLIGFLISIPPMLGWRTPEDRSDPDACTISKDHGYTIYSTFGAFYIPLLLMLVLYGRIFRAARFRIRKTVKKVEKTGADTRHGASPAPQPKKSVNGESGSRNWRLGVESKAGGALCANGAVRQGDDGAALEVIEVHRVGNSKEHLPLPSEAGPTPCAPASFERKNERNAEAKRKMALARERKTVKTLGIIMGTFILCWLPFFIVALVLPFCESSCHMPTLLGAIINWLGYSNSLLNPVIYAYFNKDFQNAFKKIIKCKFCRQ
Description: 5-HT1A Receptor: The cDNA corresponding to the 5-HT1A receptor open reading frames and variable non-coding 5′- and 3′-regions, was cloned into the eukaryotic expression vector pCEXV-3. These constructs were transfected transiently into COS-7 cells by the DEAE-dextran method (Cullen, 1987), and harvested after 72 hours. Radioligand binding assays were performed as described above for the 5-HT2A receptor, except that ^3H-8-OH-DPAT was used as the radioligand and nonspecific binding was determined by the addition of 10 μM mianserin.

[4] = target: T6, DA transporter (rDA Uptk) (Rattus norvegicus, UniProt P23977); test: Binding at native DA transporter; conditions: Table 8
T6 construct: native, tissue-derived transporters; from tissue
T6 sequence (P23977 whole entry): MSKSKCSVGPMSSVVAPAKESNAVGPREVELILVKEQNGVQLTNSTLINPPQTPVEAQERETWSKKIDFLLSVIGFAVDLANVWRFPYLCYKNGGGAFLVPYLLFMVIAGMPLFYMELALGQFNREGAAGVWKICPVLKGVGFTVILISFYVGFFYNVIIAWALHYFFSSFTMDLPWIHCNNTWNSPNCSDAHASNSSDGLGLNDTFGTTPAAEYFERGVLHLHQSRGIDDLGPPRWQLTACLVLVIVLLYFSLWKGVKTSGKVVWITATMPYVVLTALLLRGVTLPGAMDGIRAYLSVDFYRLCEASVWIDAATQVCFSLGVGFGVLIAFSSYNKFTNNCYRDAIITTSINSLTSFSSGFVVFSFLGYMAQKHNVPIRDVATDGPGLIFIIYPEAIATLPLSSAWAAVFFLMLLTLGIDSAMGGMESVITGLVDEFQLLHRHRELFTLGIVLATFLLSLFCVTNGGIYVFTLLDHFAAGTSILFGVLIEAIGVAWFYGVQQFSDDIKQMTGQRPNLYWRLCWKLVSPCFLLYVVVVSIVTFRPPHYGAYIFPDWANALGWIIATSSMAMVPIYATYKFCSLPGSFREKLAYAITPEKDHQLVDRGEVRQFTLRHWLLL
Description: The binding properties of the compounds of the present invention were evaluated at one or more cloned receptors or native, tissue-derived transporters, using protocols described below.
The methods to determine binding affinity at native transporters are described in the following publications: 5HT transporter and NE transporter (Owens et al., 1997), and DA transporter (Javitch et al, 1984).

T1 sequence (P21728 whole entry): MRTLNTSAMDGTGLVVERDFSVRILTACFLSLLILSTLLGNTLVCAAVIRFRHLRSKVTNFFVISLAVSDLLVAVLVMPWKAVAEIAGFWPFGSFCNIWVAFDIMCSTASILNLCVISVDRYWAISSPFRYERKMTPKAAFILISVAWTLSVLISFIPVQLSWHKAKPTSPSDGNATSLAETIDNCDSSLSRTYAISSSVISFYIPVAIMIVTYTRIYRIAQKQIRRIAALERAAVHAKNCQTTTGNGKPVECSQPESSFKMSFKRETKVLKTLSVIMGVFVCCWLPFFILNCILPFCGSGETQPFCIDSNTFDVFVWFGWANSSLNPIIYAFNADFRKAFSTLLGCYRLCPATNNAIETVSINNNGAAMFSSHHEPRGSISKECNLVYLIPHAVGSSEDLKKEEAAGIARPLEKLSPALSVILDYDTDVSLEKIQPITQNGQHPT

O=C1C(=Nc2cccc(C(F)(F)F)c2)c2ccccc2N1c1ccccc1 [Example 92, 1-PHENYL-3-[[3-(TRIFLUOROMETHYL)PHENYL]IMINO]-1,3-DIHYDRO-2H-INDOL-2-ONE]
>100: selectivity ratio hD1 (Ki hD1 / Ki hGAL3) [1] | selectivity ratio hα1D (Ki hα1D / Ki hGAL3) [2] | selectivity ratio h5HT1D (Ki h5HT1D / Ki hGAL3) (Human 5HT1D receptor) | selectivity ratio h5HT2A (Ki h5HT2A / Ki hGAL3) (Human 5HT2A receptor) | selectivity ratio hD5 (Ki hD5 / Ki hGAL3) [3] | selectivity ratio h5HT1A (Ki h5HT1A / Ki hGAL3) (h5HT1A) | selectivity ratio rDA Uptk (Ki rDA Uptk / Ki hGAL3) [4]
